From patent US20260337153A1, “IONIZABLE AMINE LIPIDS” (Intellia Therapeutics, Inc., priority 2023, published 2026)
Read-outs that look alike come from different tables or passages of the source.

How the values were obtained:
rat TTR gene = experiment: In vivo editing of TTR in rat liver after LNP delivery (NGS, % editing); design: species or system rat (Sprague-Dawley)
Method: LNPs were prepared using various amine lipids in a 4-component lipid system consisting of an ionizable lipid (e.g., an amine lipid), DSPC, cholesterol and a PEG lipid (e.g., PEG2K-DMG, C13 Ether, C14 Ether). In assays for percent liver editing in rats, Cas9 mRNA and chemically modified sgRNA targeting a rat sequence were formulated in LNPs, at either a 1:1 w/w ratio or a 1:2 w/w sgRNA:Cas9 mRNA ratio.
The lipid components were dissolved in 100% ethanol with the lipid component molar ratios described below. The chemically modified sgRNA and Cas9 mRNA were combined and dissolved in 25 mM citrate, 100 mM NaCl, pH 5.0, resulting in a concentration of total RNA cargo of approximately 0.45 mg/mL. The LNPs were formulated with an N:P ratio of about 6, with the ratio of chemically modified sgRNA:Cas9 mRNA at either a 1:1 or 1:2 w/w ratio as described below.
The LNPs were formed by an impinging jet mixing of the lipid in ethanol with two volumes of RNA solution and one volume of water. First, the lipid in ethanol is mixed through a mixing cross with the two volumes of RNA solution. Then, a fourth stream of water is mixed with the outlet stream of the cross through an inline tee. (See, e.g., WO2016010840, FIG. 2). The LNPs were held for 1 hour at room temperature, and further diluted with water (approximately 1:1 v/v). Diluted LNPs were buffer exchanged into 50 mM Tris, 45 mM NaCl, 5% (w/v) sucrose, pH 7.5 (TSS) and concentrated as needed by methods known in the art. The resulting mixture was then filtered using a 0.2 μm sterile filter. The final LNP was stored at 4° C. or −80° C. until further use.
Sprague-Dawley female rats, ranging from 6-10 weeks of age were used in each study. Animals were weighed and dosed based on individual body weight measured the morning of dosing. LNPs were dosed via the lateral tail vein in a volume of 2 mL per kilogram of animal body weight. The animals were periodically observed for adverse effects for at least 24 hours post dose.
For studies measuring in vivo editing in liver, Sprague-Dawley female rats were dosed at 0.1 mpk or 0.03 mpk, unless otherwise noted. Animals were euthanized at 6 or 7 days by carbon dioxide asphyxiation and a heart clip or by ex sanguination via cardiac puncture under isoflourane anesthesia. Blood was collected into serum separator tubes. Liver tissue was collected. Genomic DNA was isolated from the liver tissue for editing measurement by Next-Generation Sequencing (NGS).
In brief, to quantitatively determine the efficiency of editing at the target location in the genome, genomic DNA was isolated and deep sequencing was utilized to identify the presence of insertions and deletions introduced by gene editing.
PCR primers were designed around the target site (e.g., TTR), and the genomic area of interest was amplified. Additional PCR was performed according to the manufacturer's protocols (Illumina) to add the necessary chemistry for sequencing. The amplicons were sequenced on an Illumina MiSeq instrument. The reads were aligned to the […] after eliminating those having low quality scores. The resulting files containing the reads were mapped to the reference genome (BAM files), where reads that overlapped the target region of interest were selected and the number of wild type reads versus the number of reads which contain an insertion, substitution, or deletion was calculated.
The editing percentage (e.g., the “indel efficiency” or “percent indels” or “% editing” or “% indel”) can be defined as the total number of sequence reads with insertions or deletions over the total number of sequence reads, including wild type.
In vivo editing efficiency for materials delivered with formulations including various amine lipid (or ionizable lipid) compounds in Experiments 1 through 14 as described in Tables 3 and 4 was assessed. Editing was measured using G000534 (SEQ ID NO: 5) which targets the rat TTR gene. […]

[1] = pKa of unformulated amine lipid by TNS fluorescence; format: physicochemical
Method: The pKa of each amine lipid was determined according to the method in Jayaraman, et al. (Angew Chem Int Ed Engl 51(34), 2012, 8529-8533) with the following adaptations. The pKa was determined for unformulated amine lipid in ethanol. Lipid stock solutions (2.94 mM) were diluted into Sodium Phosphate Buffers (0.1 M, Boston Bioproducts) of different pH (pH-range: 4.5-9.0) yielding a final lipid concentration of approx. 100 μM. The test samples were supplemented with TNS {6-(p-Toluidino)-2-naphthalenesulfonic acid sodium salt}, incubated and the fluorescence intensity was measured using excitation and emission wavelengths of 321 nm and 448 nm, respectively. The recorded data were normalized and the respective pKa values were derived from sigmoidal fitting.

[2] = Experiment 7, 0.1 mpk, LNP with PEG2K-DMG
[3] = sodium phosphate buffer, Table 2, unformulated amine lipid, TNS, read-out: Lipid pKa
[4] = Experiment 14, 0.03 mpk, LNP with C13 Ether

| pKa [1, 3] | Compound | Mean % editing (rat TTR gene; [2]) [%] | further results |
| --- | --- | --- | --- |
| – | CCCCCCCCOC(CCC(=O)OCC(COC(=O)CC(CCCC)CCCCCC)COC(=O)NCCN(CC)CC)OCCCCCCCC (stereo not drawn) [Compound 44, 3-((4,4-bis(octyloxy)butanoyl)oxy)-2-((((2-(diethylamino)ethyl)carbamoyl)oxy)methyl)propyl 3-butylnonanoate] | 59.8 | – |
| – | CCCCC/C=C\C/C=C\CCCCCCCC(=O)OCC(COC(=O)CCCC(=O)OC(CCCCCCCC)CCCCCCCC)COC(=O)OCC1CCCN(CC)C1 (stereo not drawn) [Compound 62, 3-((((1-ethylpiperidin-3-yl)methoxy)carbonyl)oxy)-2-((((9Z,12Z)-octadeca-9,12-dienoyl)oxy)methyl)propyl heptadecan-9-yl glutarate] | – | Mean % editing (rat TTR gene; Table 8, 0.03 mpk, LNP with C13 Ether): 28.0% |
| – | CCCCCCCCOC(CCC(=O)OCC(COC(=O)CCCCCCCC)COC(=O)OCCCN(CC)CC)OCCCCCCCC (stereo not drawn) [Compound 45, 3-((4,4-bis(octyloxy)butanoyl)oxy)-2-((((3-(diethylamino)propoxy)carbonyl)oxy)methyl)propyl Nonanoate] | 1.8 | – |
| – | CCCCCCCCC(CCCCCCCC)OC(=O)CCCCC(=O)OCC(COC(=O)CCCCC(=O)OC(CCCCCCCC)CCCCCCCC)COC(=O)OCCCN1CCCC1 [Compound 69, di(heptadecan-9-yl) O,O′-(2-((((3-(pyrrolidin-1-yl)propoxy)carbonyl)oxy)methyl)propane-1,3-diyl) diadipate] | – | pKa ([1]; read-out: pKa): 6.4; Mean % editing in rat liver (rat TTR gene; NGS, dose 0.03 mpk, LNP with G000534 sgRNA and Cas9 mRNA 1:2 w/w, 3% C13 Ether (Compound 53: 3% PEG2K-DMG), N=5 (Compound 33: N=4)): 7.3% |
| – | CCCCCCCCOC(CCC(=O)OCC(COC(=O)CCCCCCCC)COC(=O)NCCN(CC)CC)OCCCCCCCC (stereo not drawn) [Compound 46, 3-((4,4-bis(octyloxy)butanoyl)oxy)-2-((((2-(diethylamino)ethyl)carbamoyl)oxy)methyl)propyl Nonanoate] | 0.2 | – |
| 6.56 | CCCCCCCCC(CCCCCCCC)OC(=O)CCCCCC(=O)OCC(COC(=O)CCCCCC(=O)OC(CCCCCCCC)CCCCCCCC)COC(=O)NCCN(CC)CC [Compound 38, O′1,O1-(2-((((2-(diethylamino)ethyl)carbamoyl)oxy)methyl)propane-1,3-diyl) 7,7′-di(heptadecan-9-yl) di(heptanedioate)] | – | Mean % editing (rat TTR gene; [4]): 19.4% |
| 6.63 | CCCCCCCCC(CCCCCCCC)C(=O)OCCCC(=O)OCC(COC(=O)CCCOC(=O)C(CCCCCCCC)CCCCCCCC)COC(=O)NCCN(CC)CC [Compound 39, [4-[2-[2-(diethylamino)ethylcarbamoyloxymethyl]-3-[4-(2-octyldecanoyloxy)butanoyloxy]propoxy]-4-oxo-butyl]2-octyldecanoate] | – | Mean % editing (rat TTR gene; [4]): 11.3% |
| – | CCCCCCCCOC(CCC(=O)OCC(COC(=O)OCCCN(CC)CC)COC(=O)C(CCCC)CCCCCC)OCCCCCCCC (stereo not drawn) [Compound 47, 3-((4,4-bis(octyloxy)butanoyl)oxy)-2-((((3-(diethylamino)propoxy)carbonyl)oxy)methyl)propyl 2-butyloctanoate] | 56.3 | – |
| 6.2 | CCCCC/C=C\C/C=C\CCCCCCCC(=O)OCC(CCCCCCCCC(=O)OC(CCCC)CCCC)COC(=O)OCCCN(CC)CC (stereo not drawn) [Compound 21, 2-((((3-(diethylamino)propoxy)carbonyl)oxy)methyl)-11-(nonan-5-yloxy)-11-oxoundecyl (9Z,12Z)-octadeca-9,12-dienoate] | – | – |
